Laboratory results: paper PMC10578927, “An unconventional gatekeeper mutation sensitizes inositol hexakisphosphate kinases to an allosteric inhibitor” (eLife, 2023)

What was measured:
IP6K1^wt [1] = target: T1, IP6K1^wt (Homo sapiens, UniProt Q92551); assay: High-throughput screen, reverse kinase reaction (5PP-InsP5 + ADP), Kinase-Glo luminescence; type: biochemical; conditions: dose-dependent reconfirmation
T1 construct: made in house; host or cells: E. coli Arctic Express

HEK293 = assay: Cytotoxicity, cell survival after 72 hr incubation; type: cell-based; conditions: HEK293, 10 µM, 72 hr incubation
Description: (§1) Supplementary file elife-88982-supp2.xlsx: Supplementary file 2. Cytotoxicity of selected hits indicated by cell survival after 72 hr incubation at 10 µM concentration. All compounds were measured in independent triplicates and errors represent standard deviation. Redox activity of selected compounds measured via a photometric surrogate assay. Reactions contained 50 mM HEPES pH 7.5, 50 mM NaCl, 200 mM DTT, and 20 µM resazurin, and were incubated for 1 hr at 37°C.

HepG2 = assay: Cytotoxicity, cell survival after 72 hr incubation; type: cell-based; conditions: HepG2, 10 µM, 72 hr incubation
Description: as §1

IP6K1^L210V [2] = target: T2, IP6K1^L210V (Homo sapiens, UniProt Q92551, L210V); assay: High-throughput screen, reverse kinase reaction (5PP-InsP5 + ADP), Kinase-Glo luminescence; type: biochemical
T2 construct: made in house; host or cells: E. coli Arctic Express
Source text: Although the NMR assay described above provides direct product detection and the ability to distinguish the PP-InsP isomers ([Harmel et al., 2019]), it is inherently slow and thus not compatible with a high-throughput screen. The use of luminescence-based readouts of ATP consumption to measure IP6K activity is error-prone due to the kinase’s unusually low affinity for ATP, the sensitivity to the ATP/ADP ratio, and its inherent ATPase activity ([Wundenberg et al., 2014]; [Voglmaier et al., 1996]). Nevertheless, we were able to take advantage of these properties by examining the reverse reaction of IP6K1 with the Kinase-Glo assay, where 5PP-InsP5 and ADP are converted to InsP6 and ATP (Figure 3a).
The following solutions were prepared as 4× stock solutions: kinase buffer (HEPES pH 7.4, NaCl, BSA, MgCl2, Tween-20, DTT, and IP6K1^L210V), DMSO/inhibitor, ADP, and 5PP-InsP5. Final concentrations after optimization were 1 mM ADP, 20 mM HEPES, 50 mM NaCl, 0.2 mg/ml BSA, 2 mM MgCl2, 0.05% Tween-20, 1 mM DTT, 250 nM IP6K1^L210V, and 50 μM 5PP-InsP5. The reactions were carried out in 384-well plates following this procedure. 5 µl 4× kinase buffer (buffer only for no kinase controls), 5 µl 4× DMSO or inhibitor and 5 µl 4× ADP solution were subsequently added to all wells. After 10 min equilibration, 5 μl 4× 5PP-InsP5 were added to start the reaction (milli-Q water for negative controls). After 3 hr at room temperature, 20 µl of Promega Kinase-Glo Plus reagent were added and the luminescence read out with a Tecan Infinite M Plex reader using 100-ms exposure time after 10 min of equilibration.
ADP was prepared in a 2× stock solution in milli-Q water and the pH adjusted to 7.0. The following solutions were prepared as 4× stock solutions: kinase buffer (HEPES pH 7.4, NaCl, BSA, MgCl2, Tween-20, DTT, and IP6K1^L210V) and 5PP-InsP5. Final concentrations were 1 mM ADP, 20 mM HEPES, 50 mM NaCl, 0.2 mg/ml BSA, 2 mM MgCl2, 0.05% Tween-20, 1 mM DTT, 250 nM IP6K1^L210V, and 50 µM 5PP-InsP5. The reactions were carried out in 384-well plates following this procedure. 10 µl 2× ADP solution were added to all wells, then 0.2 µl DMSO or compound (1 mM in DMSO) were added followed by the addition of 5 µl 4× kinase buffer. For dose–response curves, compounds were added in serial dilution (twofold serial dilutions in DMSO across multiple plates prior to compound transfer to assay plates, 9 concentrations in total). After 10 min equilibration, 5 µl 4× 5PP-InsP5 were added to start the reaction (milli-Q water for negative controls). After 3 hr at room temperature, 20 µl of Promega Kinase-Glo Plus reagent were added and the luminescence read out with a Tecan Infinite M Plex or Perkin Elmer EnVision reader using 100ms exposure time after 10 min of equilibration. In the counter screen, dose–response curves were measured in the absence of kinase and presence of 50 µM ATP.

IP6K1^L210V [3] = target: T2, IP6K1^L210V; assay: NMR activity assay, [13C6]-InsP6 to 5PP-InsP5, with ATP-regenerating system; type: biochemical; conditions: for inhibition of IP6K1^L210V: 10 µM concentration
Source text: (§2) The gatekeeper mutants L210G and L210A of IP6K1 were generated by site-directed mutagenesis and the enzymes were recombinantly expressed, analogous to the WT kinase, as MBP-fusion proteins. To assess their catalytic activity, we used an NMR assay that harnesses fully ^13C-labeled InsP6 as a substrate and enables direct product readout of 5PP-InsP5 (Figure 2b and Figure 2—figure supplement 1; [Puschmann et al., 2019]; [Harmel et al., 2019]). […] Likewise, IP6K2 suffered a drastic decline in substrate turnover upon gatekeeper mutation to glycine (Figure 2—figure supplement 2).
(§3) The NMR assay for IP6K activity was performed similarly as described before ([Harmel et al., 2019]) with slight alterations. Enzyme assays were performed in D2O in a total volume of 150 µl containing 20 mM 4-(2-hydroxyethyl)-1-piperazineethanesulfonic acid (HEPES) pH* 6.8, 50 mM NaCl, 6 mM MgCl2, 1 mM ATP, 0.2 mg/ml BSA, 1 mM DTT, 5 mM creatine phosphate and 1 U/ml creatine kinase (ATP-regenerating system) and 50 nM kinase if not otherwise stated. HEPES, NaCl, and BSA were prepared as buffer A and DTT and creatine phosphate as buffer B in D2O and were adjusted to pH* 6.8, respectively. If applicable, inhibitor was added as a DMSO-d6 stock in a twofold dilution series at a final DMSO concentration of 1% if not otherwise mentioned. Otherwise, DMSO-d6 was added to the same percentage. The samples were equilibrated at 37°C for 3 min and the reaction initiated by adding 100 µM [^13C6]-InsP6.

IP6K1^L210V [4] = target: T2, IP6K1^L210V; assay: Michaelis–Menten and Lineweaver–Burk kinetics (NMR); type: biochemical; conditions: Michaelis–Menten, read-out: KM for ATP
Description: (§4) Kinetic assays were performed in D2O in a total volume of 500 µl containing the same buffer components for IP6K and IP6KA constructs as stated for the NMR activity assays above. […] If applicable, inhibitor was added as a DMSO-d6 stock at a final DMSO concentration of 1%. Otherwise, DMSO-d6 was added to the same percentage. The samples were equilibrated at 37°C for 5 min and the reaction initiated by adding 100 µM [^13C6]-InsP6. The reaction time was adjusted so that conversion would not exceed 20% to remain in the linear range for initial velocity measurements. The reaction was quenched with 38 µl 700 mM EDTA pH* 8.0 and transferred into an NMR tube before being measured on a Bruker […] 600 PLUS with an NMR pulse program developed previously ([Harmel et al., 2019]). Initial velocities were calculated by dividing the amount of generated product by the product of reaction time in seconds and mass of the kinase in mg.

IP6K1^wt [5] = target: T1, IP6K1^wt; assay: as above; type: biochemical
Description: as §4

IP6K1^wt [6] = target: T1, IP6K1^wt; assay: NMR activity assay, [13C6]-InsP6 to 5PP-InsP5, with ATP-regenerating system; type: biochemical
Source text: as §2, §3

IP6K = conditions: Figure 1b; ref Padmanabhan et al., 2009 (TNP); Wormald et al., 2019 (Barrow-24); Moritoh et al., 2021; Terao et al., 2018 (SC-919); cited from earlier work

T1 sequence (Q92551 whole entry): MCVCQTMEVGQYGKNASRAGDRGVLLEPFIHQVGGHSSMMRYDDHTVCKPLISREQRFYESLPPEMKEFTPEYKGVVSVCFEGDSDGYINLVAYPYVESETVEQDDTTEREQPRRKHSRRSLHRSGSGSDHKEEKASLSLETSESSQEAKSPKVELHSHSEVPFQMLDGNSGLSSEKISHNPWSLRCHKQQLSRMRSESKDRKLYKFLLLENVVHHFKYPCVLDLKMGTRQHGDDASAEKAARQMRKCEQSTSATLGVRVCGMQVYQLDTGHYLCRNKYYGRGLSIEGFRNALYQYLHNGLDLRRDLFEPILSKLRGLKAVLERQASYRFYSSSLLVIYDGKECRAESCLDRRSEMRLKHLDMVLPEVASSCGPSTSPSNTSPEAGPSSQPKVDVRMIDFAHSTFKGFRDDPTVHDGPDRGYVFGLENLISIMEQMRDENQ
T2 sequence (Q92551 whole entry L210V): as the sequence (Q92551 whole entry) above, with L210V counted along it

O=c1c(O)c(-c2ccc(O)c(O)c2)oc2cc(O)cc(O)c12 [compound 405356, quercetin, reference compound]
IC50 (IP6K1^wt [1]): 12.1 µM | Cell number (%) (HEK293): 104.0 ± 1.4% | Cell number (%) (HepG2): 65.9 ± 16.9% | IC50 (IP6K1^L210V [2]; Kinase-Glo, reverse reaction, dose-dependent reconfirmation): 2.86 µM | Z-score (IP6K1^L210V [2]; primary screen, IP6K1^L210V): -14.6 | %Activity (IP6K1^L210V [2]; primary screen, residual activity of IP6K1^L210V): 7.8%

O=C1c2ccccc2C(=O)N1c1ccc(-c2nc3ccc(N4C(=O)c5ccccc5C4=O)cc3[nH]2)cc1 [A1]
inhibition of IP6K1^L210V (IP6K1^L210V [3]; NMR assay): completely inactive

Nc1ncnc2c1ncn2[C@@H]1O[C@H](COP(=O)(O)OP(=O)(O)OP(=O)(O)O)[C@@H](O)[C@H]1O [ATP]
Km (IP6K1^L210V [4]): 412 ± 81 µM | Km (IP6K1^wt [5]; Michaelis–Menten, read-out: KM for ATP): 186 ± 23 µM

O=[N+]([O-])c1ccc(CNc2nc(NCc3cccc(C(F)(F)F)c3)nc3[nH]cnc23)cc1 [TNP, N2-(m-trifluorobenzyl)-N6-(p-nitrobenzyl)purine, reference compound]
difference in potency against IP6K1^wt and IP6K1^L210V (IP6K1^L210V [3]; NMR IC50 curves): no significant difference in potency | IC50 (IP6K1^L210V [3]; NMR assay, Figure 4—figure supplement 2b): 1.41 µM | IC50 (IP6K1^wt [6]; Figure 4—figure supplement 2b): 2.15 µM | mechanism of inhibition (Lineweaver–Burk) (IP6K1^wt [5]; versus ATP): competitive mechanism of action | IC50 (IP6K): 0.47 µM

Cn1c(=O)n(-c2ccc(C(C)(C)C#N)cc2)c2c3cc(-c4cnc5ccccc5c4)ccc3ncc21 [BEZ235, reference compound]
inhibition of IP6K1^L210V (IP6K1^L210V [3]; NMR assay): inhibition of IP6K1^L210V was not observed either | inhibitory activity against IP6K1^wt (IP6K1^wt [6]; 10 µM concentration): none of these compounds exhibited any inhibitory activity

O=C(O)c1ccc2c(c1)C(=O)N(c1ccc(-c3nc4ccccc4[nH]3)cc1)C2=O [A2]
inhibition of IP6K1^L210V (IP6K1^L210V [3]; NMR assay): inhibited IP6K1^L210V, albeit with severely reduced potency
